Source: EP3233044B1, “ANHYDROUS COSMETIC COMPOSITION FOR TOPICAL APPLICATION IN INTIMATE AREAS” (The Procter & Gamble Company, priority 2014, dated 2016)

Assays:
[1] = Thiol Vapor Pressure Suppression (TVPS) index, headspace butanethiol by zNose fast GC; format: physicochemical; conditions: 5 µl compound vs 100 µl of 1% v/v butanethiol in ethanol, 37 °C for 4 hours; percentage reduction in butanethiol peak area
Source text: Thiol Vapor Pressure Suppression (TVPS) index is a measure of the reduction in butanethiol concentration in the headspace by a compound, as measured using a fast GC instrument, the zNose 7100 (Electronic Sensor Technologies, Newbury Park, CA). Before any measurements the instrument is calibrated according to manufacturer's instructions under the same experimental settings. The instrument has a DB-5 column (EST Part No.SYS7100C5, Electronic Sensor Technologies, Newbury Park, CA) 1 m in length, 0.25 µm phase thickness, and 0.25mm in diameter. […]
TVPS of a compound is measured in the following way: 100 µl ± 1 µl of a 1% v/v butanethiol (99%, purity) solution in ethanol (200 proof) is added into a 1 ml vial (8 x 40 mm). […]
The amount of butanethiol in the headspace is measured from the area of the peak on the chromatograph for butanethiol (ABtSH,Rx). To calculate the percentage of butanethiol reduction in the headspace, a control with the butanethiol solution without the volatile material is run in the same manner and the area is measured as well (ABtSH,C). TVPS is then measured as the percentage reduction in butanethiol area calculated using the following formula: TVPS = (ABtSH,C −ABtSH,Rx)/(ABtSH,C) × 100 [formula]

[2] = Solubility of Vitamin B5 derivatives in anhydrous stick formulations; format: physicochemical
Source text: Additional considerations regarding exemplary Vitamin B5 derivatives may apply. For example, in order to deliver Vitamin B5 (or a derivative thereof) from an anhydrous, hydrophobic, glycol free and antiperspirant free cosmetic stick, a corresponding matrix soluble form or derivative of Vitamin B5 must be used to achieve the desired benefits of hair softening, shave bump reduction and wound healing from shave cut damage. For example, if an incompatible or insoluble form of Vitamin B5 is used, such as panthenol, this will not form a homogenous one phase solution when the ingredients are blended and heated together from the melt.
As such, the Vitamin B5 derivative utilized should be soluble in the anhydrous, hydrophobic, glycol free and antiperspirant free matrix.

Compound	TVPS [1]	Solublility in hydrophobic Anhydrous, glycol free, antiperspirant free Stick formulations [2]
CC(C)c1cccc(C(C)CC=O)c1 (stereo not drawn) [Florhydral]	50.5	–
CC(=O)OCCCNC(=O)[C@H](OC(C)=O)C(C)(C)COC(C)=O [Panthenyl Triacetate]	–	Soluble
Panthenyl Ethyl Ether	–	Soluble
